Results on two compounds are retold here after ChEMBL document CHEMBL2406961, “Inhibitors of ATR Kinase for Treatment of Cancer” (ACS Med Chem Lett, 2013).

SMILES strings stand for the structures.

For this test, the target named is Serine/threonine-protein kinase ATR (Homo sapiens, UniProt Q13535). The experiment in a line: Inhibition of ATR (unknown origin).
Sequence of Serine/threonine-protein kinase ATR (Q13535 whole entry): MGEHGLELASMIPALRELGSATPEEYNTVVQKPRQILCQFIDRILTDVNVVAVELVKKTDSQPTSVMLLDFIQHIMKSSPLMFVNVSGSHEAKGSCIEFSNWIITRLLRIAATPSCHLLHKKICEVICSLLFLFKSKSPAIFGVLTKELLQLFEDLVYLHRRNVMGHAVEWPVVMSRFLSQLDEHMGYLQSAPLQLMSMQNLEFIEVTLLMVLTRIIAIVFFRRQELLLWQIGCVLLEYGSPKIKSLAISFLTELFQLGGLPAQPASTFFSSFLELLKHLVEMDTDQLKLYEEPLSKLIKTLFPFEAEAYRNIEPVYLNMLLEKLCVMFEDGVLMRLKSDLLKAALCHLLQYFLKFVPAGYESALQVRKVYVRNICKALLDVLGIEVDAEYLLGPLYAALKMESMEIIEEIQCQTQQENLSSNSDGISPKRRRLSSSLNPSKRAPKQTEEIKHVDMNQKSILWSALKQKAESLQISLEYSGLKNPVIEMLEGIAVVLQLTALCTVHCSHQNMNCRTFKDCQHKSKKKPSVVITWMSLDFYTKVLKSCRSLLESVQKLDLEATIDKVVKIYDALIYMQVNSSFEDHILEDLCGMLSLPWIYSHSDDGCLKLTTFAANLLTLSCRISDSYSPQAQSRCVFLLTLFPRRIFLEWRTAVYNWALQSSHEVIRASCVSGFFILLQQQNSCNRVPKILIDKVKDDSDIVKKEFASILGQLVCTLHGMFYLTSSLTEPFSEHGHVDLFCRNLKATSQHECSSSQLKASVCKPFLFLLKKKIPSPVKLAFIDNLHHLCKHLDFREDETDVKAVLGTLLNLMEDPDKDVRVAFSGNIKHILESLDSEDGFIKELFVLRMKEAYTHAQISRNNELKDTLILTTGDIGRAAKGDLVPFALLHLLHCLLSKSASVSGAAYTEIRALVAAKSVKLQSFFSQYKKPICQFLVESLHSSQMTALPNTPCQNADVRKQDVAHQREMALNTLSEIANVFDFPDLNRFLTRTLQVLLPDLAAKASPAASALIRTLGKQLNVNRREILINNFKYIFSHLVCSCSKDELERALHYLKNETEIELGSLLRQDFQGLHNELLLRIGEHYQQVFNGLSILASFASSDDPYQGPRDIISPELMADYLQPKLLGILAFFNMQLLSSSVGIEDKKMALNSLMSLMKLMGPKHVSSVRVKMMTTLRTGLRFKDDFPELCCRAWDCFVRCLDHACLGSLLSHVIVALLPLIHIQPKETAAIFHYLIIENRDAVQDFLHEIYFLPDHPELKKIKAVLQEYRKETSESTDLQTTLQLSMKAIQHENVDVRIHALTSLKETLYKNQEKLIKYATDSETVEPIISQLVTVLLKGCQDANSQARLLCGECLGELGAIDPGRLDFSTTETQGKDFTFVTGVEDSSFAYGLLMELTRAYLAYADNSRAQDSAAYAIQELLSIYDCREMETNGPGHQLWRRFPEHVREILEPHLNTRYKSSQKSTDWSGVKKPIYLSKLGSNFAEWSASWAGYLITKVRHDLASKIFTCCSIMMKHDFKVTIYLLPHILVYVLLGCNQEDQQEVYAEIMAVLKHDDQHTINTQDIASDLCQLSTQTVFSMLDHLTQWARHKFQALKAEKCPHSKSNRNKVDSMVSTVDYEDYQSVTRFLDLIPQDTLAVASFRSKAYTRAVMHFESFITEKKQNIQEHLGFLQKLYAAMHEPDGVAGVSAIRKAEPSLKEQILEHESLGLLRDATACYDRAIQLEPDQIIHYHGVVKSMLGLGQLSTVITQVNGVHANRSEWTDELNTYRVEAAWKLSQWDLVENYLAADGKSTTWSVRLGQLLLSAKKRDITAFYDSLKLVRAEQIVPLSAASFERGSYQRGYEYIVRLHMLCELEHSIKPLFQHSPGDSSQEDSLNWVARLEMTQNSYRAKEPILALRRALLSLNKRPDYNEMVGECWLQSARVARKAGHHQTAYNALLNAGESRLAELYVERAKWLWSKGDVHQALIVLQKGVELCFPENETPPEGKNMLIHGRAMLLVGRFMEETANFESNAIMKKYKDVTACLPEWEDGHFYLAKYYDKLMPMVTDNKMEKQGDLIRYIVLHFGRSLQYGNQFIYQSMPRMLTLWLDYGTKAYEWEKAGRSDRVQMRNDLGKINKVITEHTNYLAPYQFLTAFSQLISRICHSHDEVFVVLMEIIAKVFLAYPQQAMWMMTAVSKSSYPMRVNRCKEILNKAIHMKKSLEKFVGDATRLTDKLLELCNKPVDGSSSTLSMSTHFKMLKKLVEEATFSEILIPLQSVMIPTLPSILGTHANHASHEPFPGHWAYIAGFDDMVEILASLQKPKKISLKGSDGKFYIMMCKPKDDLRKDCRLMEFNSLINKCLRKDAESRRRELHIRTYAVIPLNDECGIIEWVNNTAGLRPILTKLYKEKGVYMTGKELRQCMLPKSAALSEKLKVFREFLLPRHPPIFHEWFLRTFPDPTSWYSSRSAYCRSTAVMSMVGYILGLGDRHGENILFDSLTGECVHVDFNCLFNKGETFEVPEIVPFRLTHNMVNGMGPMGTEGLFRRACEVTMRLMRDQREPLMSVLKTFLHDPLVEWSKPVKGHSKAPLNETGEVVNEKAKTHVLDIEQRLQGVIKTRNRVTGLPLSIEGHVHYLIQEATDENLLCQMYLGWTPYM

By Ki is commonly meant a measure of affinity in units of concentration, obtained from inhibition or displacement. Read a low Ki as tighter binding. In turn, `CC(C)S(=O)(=O)c1ccc(-c2cnc(N)c(C3CC(c4ccccc4)=NO3)n2)cc1` (configuration not stated) yielded a Ki of 90 nM.

`CNCc1ccc(C2=NOC(c3nc(-c4ccc(S(=O)(=O)C(C)C)cc4)cnc3N)C2)cc1` (configuration not stated) gave a Ki of 16 nM.
